Results on 16 molecules are retold here after publication PMC7734618 (Bioorganic & medicinal chemistry, 2008).

Common to all, as to format: cell-based
The nature of series [1]: Cytotoxicity in PHA-stimulated human PBM cells. The following applies: uninfected PHA-stimulated PBM cells.
Series [2] is described as follows: in vitro. The following applies: human, CEM cells (T-lymphoblastoid cell line).
The subject of series [3] is HIV-1LAI. Put plainly: Anti-HIV activity against HIV-1LAI in human PBM cells. The following applies: HIV-1LAI in PBM cells.
The nature of series [4]: Cytotoxicity in Vero cells. Conditions: African green monkey, Vero cells (kidney).

Structures can show the parent of a compound that is named as a salt. Where only a bound is given, the exact number is not on record here.

Consider `CC(=O)OC[C@@H]1OC[C@H](n2cc(C)c(=O)[nH]c2=O)O1` [Compound 1, Dioxolane thymine-5′-O-acetic ester], for which the IC50 at 4 days in series [1] was > 100 µM.
On to `CCCCC(=O)OC[C@@H]1OC[C@H](n2cc(C)c(=O)[nH]c2=O)O1` [Compound 2, Dioxolane thymine-5′-O-valeric ester], for which, in series [1], the half-inhibitory concentration (IC50) at 4 days was > 100 µM. The IC50 at 3 days in series [2] is > 100 µM.
Regarding `CCCCCCCC(=O)OC[C@@H]1OC[C@H](n2cc(C)c(=O)[nH]c2=O)O1` [Compound 3, Dioxolane thymine-5′-O-octanotic ester], in series [1], the IC50 at 4 days was > 100 µM. For the same molecule, the IC50 at 3 days in series [2] is > 100 µM.
In the case of `CCCCCCCCCCCC(=O)OC[C@@H]1OC[C@H](n2cc(C)c(=O)[nH]c2=O)O1` [Compound 4, Dioxolane thymine-5′-O-dodecanoic ester], the IC50 at 4 days in series [1] was > 100 µM. In addition, in series [2], the IC50 at 3 days is > 100 µM.
With `CCCCCCCCCCCCCCCC(=O)OC[C@@H]1OC[C@H](n2cc(C)c(=O)[nH]c2=O)O1` [Compound 5, Dioxolane thymine-5′-O-palmitic ester], in series [1], the IC50 at 4 days is > 100 µM. In series [2], the IC50 at 3 days is > 100 µM.
For `Cc1cn([C@H]2CO[C@@H](COC(=O)C(C)(C)C)O2)c(=O)[nH]c1=O` [Compound 6, Dioxolane thymine-5′-O-pivalic ester], in series [1], the IC50 at 4 days is > 100 µM. Besides, the IC50 at 3 days in series [2] was > 100 µM.
Turning to `Cc1cn([C@H]2CO[C@@H](COC(=O)C3CC3)O2)c(=O)[nH]c1=O` [Compound 7, Dioxolane thymine-5′-O-cyclopropanecarboxylic ester], the IC50 at 4 days in series [1] was > 100 µM. Moreover, in series [2], the IC50 at 3 days is > 100 µM.
For the molecule `Cc1cn([C@H]2CO[C@@H](COC(=O)C3CCCCC3)O2)c(=O)[nH]c1=O` [Compound 8, Dioxolane thymine-5′-O-cyclohexanecarboxylic ester], in series [1], the IC50 at 4 days is > 100 µM. Further, the IC50 at 3 days in series [2] is > 100 µM.
On to `Cc1cn([C@H]2CO[C@@H](COCOC(=O)C(C)(C)C)O2)c(=O)[nH]c1=O` [Compound 9, Dioxolane thymine-5′-O-pivaloyloxymethyl ether], for which the “Anti-HIV activity compared with parent drug DOT (in words)” value in series [3] is recorded as “slightly reduced antiviral activity”. Besides, the IC50 at 4 days in series [1] is > 100 µM. Also, the IC50 at 3 days in series [2] is > 100 µM.
Regarding `Cc1cn([C@H]2CO[C@@H](COC(=O)CN)O2)c(=O)[nH]c1=O` [Compound 11, Dioxolane thymine-5′-O-glycyl ester hydrochloride], the IC50 at 4 days in series [1] is > 100 µM. The IC50 at 3 days in series [2] was > 100 µM.
For the molecule `Cc1cn([C@H]2CO[C@@H](COC(=O)[C@H](C)N)O2)c(=O)[nH]c1=O` [Compound 13, Dioxolane thymine-5′-O-l-alanyl ester hydrochloride], the IC50 at 4 days in series [1] was > 100 µM. For the same molecule, the IC50 at 3 days in series [2] was > 100 µM.
Turning to `Cc1cn([C@H]2CO[C@@H](COC(=O)[C@@H](N)Cc3ccccc3)O2)c(=O)[nH]c1=O` [Compound 14, Dioxolane thymine-5′-O-l-phenylalanyl ester hydrochloride], in series [1], the IC50 at 4 days is > 100 µM. Also, in series [2], the IC50 at 3 days is > 100 µM. For the same molecule, the IC50 at 2 days in series [4] is > 100 µM.
For `Cc1cn([C@H]2CO[C@@H](COC(=O)[C@H](N)Cc3ccccc3)O2)c(=O)[nH]c1=O` [Compound 15, Dioxolane thymine-5′-O-d-phenylalanyl ester hydrochloride], the IC50 at 4 days in series [1] was > 100 µM. The IC50 at 3 days in series [2] was > 100 µM. Further, the IC50 at 2 days in series [4] was > 100 µM.
On to `Cc1cn([C@H]2CO[C@@H](COC(=O)[C@@H](N)C(C)C)O2)c(=O)[nH]c1=O` [Compound 16, Dioxolane thymine-5′-O-l-valyl ester hydrochloride], for which, in series [1], the IC50 at 4 days was > 100 µM. Also, the IC50 at 3 days in series [2] was > 100 µM. The IC50 at 2 days in series [4] is > 100 µM.
Turning to `Cc1cn([C@H]2CO[C@@H](COC(=O)[C@H](N)C(C)C)O2)c(=O)[nH]c1=O` [Compound 17, Dioxolane thymine-5′-O-d-valyl ester hydrochloride], in series [1], the IC50 at 4 days was > 100 µM. Besides, the IC50 at 3 days in series [2] was > 100 µM. For the same molecule, the IC50 at 2 days in series [4] was > 100 µM.
In the case of `Cc1cn([C@H]2CO[C@@H](COC(=O)[C@@H](N)CC(C)C)O2)c(=O)[nH]c1=O` [Compound 18, Dioxolane thymine-5′-O-l-leucinyl ester hydrochloride], the IC50 at 4 days in series [1] is > 100 µM. In addition, the IC50 at 3 days in series [2] is > 100 µM.

The term IC50 denotes the concentration needed to halve the response being measured. Lower therefore signals inhibition by little substance.
